In patent publication US10780099B2, “Injectable neurosteroid formulations containing nanoparticles” (MARINUS PHARMACEUTICALS, INC., priority 2015, dated 2020):
Where two headings read alike, the source gives them in different places.

Columns and labels:
[1] = cited from earlier work

Row | SMILES | half-life ([1]; human plasma) | half-life ([1]; human plasma following oral administration) | Tmax ([1]; in vivo) | solubility (Solubility in water)
1 | CC(=O)[C@H]1CC[C@H]2[C@@H]3CC[C@H]4C[C@H](O)CC[C@]4(C)[C@H]3CC[C@]12C [Allopregnanolone, 3α,5α-tetrahydroprogesterone] | about 45 minutes |  |  | 
2 | CC(=O)[C@H]1CC[C@H]2[C@@H]3CC[C@H]4C[C@](C)(O)CC[C@]4(C)[C@H]3CC[C@]12C [Ganaxolone, 3α-hydroxy, 3β-methyl-5α-pregnan-20-one] |  | approximately 20 hours | short | < 1 µg/mL
